One assay addresses MELK (Homo sapiens, UniProt Q14680). Nature of the assay: Kinase assay: MELK activity, phosphorylation of FITC-labeled histone H3 peptide measured by IMAP fluorescence polarization. The settings on record: 50 micro-M ATP, FITC-labeled histone H3 peptide substrate, IMAP fluorescence polarization, read-out: IC50 (μM) (kinase assay). The class given is biochemical. An outline of the steps:
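Fluorescence polarization was measured 0.5 h (room temperature) after quenching with threefold volume of progressive binding solution. Test compounds from 12.5 mM DMSO stocks were assayed at 1% DMSO.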
(In general: Fluorescence polarisation rises when a labelled molecule tumbles more slowly, as on binding a larger partner.)

For a further assay, the system named is BT-549 cells. Put plainly: Cell-based assay: anti-proliferative activity, Cell Counting Kit-8, 72 hours (BT-549). Conditions: BT549 cells, MELK-expressing, Cell Counting Kit-8 at 72 hours. The procedure: To evaluate the expression status of MELK in several cell lines, western blot analysis was performed using crude cell lysate collected from those cells. Anti-MELK antibody (clone 31, BD Biosciences) was used to visualize the expression.
Active candidate inhibitors against MELK were evaluated for their target-specific cytotoxicity using T47D, A549, BT-549, and HT-1197 cells was used for negative control. 100 micro-L of cell suspension was seeded onto 96-well microtiter plate (ViewPlate-96FTC, PerkinElmer). The initial cell concentration of T47D, A549, BT-549, and HT-1197 were 3,000 cells/well, 2,000 cells/well and 2,500 cells/well, respectively. Cellular growth was determined using Cell Counting Kit-8 (DOJINDO) at 72 hours after the exposure of the candidate inhibitors. […] Accurate IC50 values were calculated as described previously.
(In general: Tetrazolium assays rely on reduction of a dye to a coloured formazan, in cell work by metabolically active cells.)

For a further assay, the system named is T47D cells. Put plainly: Cell-based assay: anti-proliferative activity, Cell Counting Kit-8, 72 hours (T47D). The settings on record: MELK-expressing, Cell Counting Kit-8 at 72 hours. An outline of the steps: (§1)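 Proliferation read with Cell Counting Kit-8 after 72 hours of inhibitor treatment, from seeding of 2,000–3,000 cells/well. Lines: T47D, A549, BT-549; HT-1197, lacking MELK by western blot, served as negative control. IC50 derived.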

The subject of the next assay is A549 cells. Nature of the assay: Cell-based assay: anti-proliferative activity, Cell Counting Kit-8, 72 hours (A549). The settings on record: MELK-expressing, Cell Counting Kit-8 at 72 hours. An outline of the steps:
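A549 cells were seeded in 96-well plates and exposed to candidate inhibitors for 72 hours. Cell growth was then measured with Cell Counting Kit-8, and IC50 values were calculated from the resulting growth data.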

The test system of another assay is HT-1197 cells. Put plainly: Cell-based assay: anti-proliferative activity, Cell Counting Kit-8, 72 hours (HT-1197, negative control without MELK expression). The settings on record: HT1197 cells, no MELK expression (negative control), Cell Counting Kit-8 at 72 hours. The method in brief:
as §1

Molecules are shown by their SMILES. Counter-ions that a name gives are not always drawn. Like-named read-outs stand apart in the source and are kept apart here.

Chain of MELK (Q14680 whole entry, looked up): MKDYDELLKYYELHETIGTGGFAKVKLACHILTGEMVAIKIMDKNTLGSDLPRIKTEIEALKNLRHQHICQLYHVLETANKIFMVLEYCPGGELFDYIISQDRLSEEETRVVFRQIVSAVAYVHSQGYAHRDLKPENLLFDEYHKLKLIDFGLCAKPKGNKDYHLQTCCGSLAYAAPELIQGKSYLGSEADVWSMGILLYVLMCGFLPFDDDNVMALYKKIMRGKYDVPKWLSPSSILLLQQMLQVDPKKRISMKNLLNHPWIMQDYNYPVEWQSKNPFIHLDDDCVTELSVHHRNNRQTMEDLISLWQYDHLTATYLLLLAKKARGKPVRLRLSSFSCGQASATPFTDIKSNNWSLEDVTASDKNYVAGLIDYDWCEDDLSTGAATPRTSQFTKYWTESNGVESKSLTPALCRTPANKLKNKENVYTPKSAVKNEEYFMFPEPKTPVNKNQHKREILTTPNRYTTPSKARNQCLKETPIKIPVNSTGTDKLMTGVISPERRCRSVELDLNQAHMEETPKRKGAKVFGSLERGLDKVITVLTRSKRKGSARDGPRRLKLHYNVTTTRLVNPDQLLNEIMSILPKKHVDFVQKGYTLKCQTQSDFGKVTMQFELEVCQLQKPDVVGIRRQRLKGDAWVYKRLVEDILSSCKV

For the compound `N[C@H]1CC[C@H](Nc2c(C(=O)C3CC3)cnc3ccc(-c4ccc(O)cc4)cc23)CC1` [Example 55, {4-[trans-4-Aminocyclohexylamino]-6-(4-hydroxyphenyl)quinolin-3-yl}(cyclopropyl)methanone], the IC50 (in general, the concentration that gives 50% inhibition) amounted to 0.021 µM on MELK; 0.43 µM in the assay with BT-549 cells (Homo sapiens, BT-549, 72 h); 0.2 µM in the assay with T47D cells (Homo sapiens, T47D, 72 h); 0.48 µM in the assay on A549 cells (Homo sapiens, A549, 72 h); 2 µM in the assay on HT-1197 cells (Homo sapiens, HT1197, 72 h).
As for `COc1cc(-c2ccc3ncc(C(=O)C4CC4)c(N[C@H]4CC[C@H](N)CC4)c3c2)ccc1O` [Example 81, {4-[trans-4-Aminocyclohexylamino]-6-(4-hydroxy-3-methoxyphenyl)quinolin-3-yl}(cyclopropyl)methanone], the IC50 at MELK was determined as 0.007 µM; with BT-549 cells (Homo sapiens, BT-549, 72 h) it was 0.55 µM; with T47D cells (Homo sapiens, T47D, 72 h) it was 0.13 µM; in the assay with A549 cells (Homo sapiens, A549, 72 h), 0.23 µM; in the assay on HT-1197 cells (Homo sapiens, HT1197, 72 h) it was 1.2 µM.
Take `N#Cc1ncc(-c2ccc3ncc(C(=O)C4CC4)c(N[C@H]4CC[C@H](N)CC4)c3c2)cn1` [Example 96, 5-{4-[trans-4-Aminocyclohexylamino]-3-(cyclopropanecarbonyl)quinolin-6-yl}pyrimidine-2-carbonitrile]: the IC50 on MELK worked out at 0.0024 µM; in the assay with BT-549 cells (Homo sapiens, BT-549, 72 h), 0.93 µM; in the assay on T47D cells (Homo sapiens, T47D, 72 h) it was 0.29 µM; in the assay on A549 cells (Homo sapiens, A549, 72 h), 1.3 µM; with HT-1197 cells (Homo sapiens, HT1197, 72 h) it was 1.5 µM.
As for `CC(C)C(=O)c1cnc2ccc(-c3ccc(C#N)nc3)cc2c1N[C@H]1CC[C@H](N)CC1` [Example 108, 5-{4-[trans-4-Aminocyclohexylamino]-3-isobutyrylquinolin-6-yl}picolinonitrile], the IC50 on MELK was 0.03 µM; with BT-549 cells (Homo sapiens, BT-549, 72 h), 14 µM; with T47D cells (Homo sapiens, T47D, 72 h), 6.1 µM; in the assay on A549 cells (Homo sapiens, A549, 72 h), 13 µM; in the assay with HT-1197 cells (Homo sapiens, HT1197, 72 h), 15 µM.
On to `N[C@H]1CC[C@H](Nc2c(C(=O)C3CC3)cnc3ccc(-c4ccc5[nH]cnc5c4)cc23)CC1` [Example 116, {4-[trans-4-Aminocyclohexylamino]-6-(1H-benzo[d]imidazol-5-yl)quinolin-3-yl}(cyclopropyl)methanone], for which the IC50 on MELK stood at 0.018 µM; in the assay with BT-549 cells (Homo sapiens, BT-549, 72 h) it was 5.7 µM; with T47D cells (Homo sapiens, T47D, 72 h) it was 1.8 µM; in the assay with A549 cells (Homo sapiens, A549, 72 h) it was 13 µM; in the assay with HT-1197 cells (Homo sapiens, HT1197, 72 h), 15 µM.
For the compound `N#Cc1ccc(-c2ccc3ncc(C(=O)C4CC4)c(N[C@H]4CC[C@H](N)CC4)c3c2)s1` [Example 119, 5-{4-[trans-4-Aminocyclohexylamino]-3-(cyclopropanecarbonyl)quinolin-6-yl}thiophene-2-carbonitrile], the IC50 on MELK is 0.046 µM; in the assay with BT-549 cells (Homo sapiens, BT-549, 72 h), 14 µM; in the assay with T47D cells (Homo sapiens, T47D, 72 h) it was 8.8 µM; in the assay on A549 cells (Homo sapiens, A549, 72 h), 5.4 µM; in the assay with HT-1197 cells (Homo sapiens, HT1197, 72 h) it was 8 µM.
In the case of `COc1cc(-c2ccc3ncc(C(=O)C4CC4)c(N4CCC(CN(C)C)CC4)c3c2)ccc1O` [Example 133, Cyclopropyl[4-{4-[(dimethylamino)methyl]piperidin-1-yl}-6-(4-hydroxy-3-methoxyphenyl)quinolin-3-yl]methanone], the half-inhibitory concentration (IC50) came to 0.0036 µM at MELK; 1.7 µM with BT-549 cells (Homo sapiens, BT-549, 72 h); 0.7 µM in the assay with T47D cells (Homo sapiens, T47D, 72 h); 0.79 µM with A549 cells (Homo sapiens, A549, 72 h); 1.9 µM in the assay with HT-1197 cells (Homo sapiens, HT1197, 72 h).
Turning to `COc1cc(-c2ccc3ncc(C(=O)C4CC4)c(N4CCC5(CCNC5)CC4)c3c2)cc(Cl)c1O` [Example 155, [6-(3-Chloro-4-hydroxy-5-methoxyphenyl)-4-(2,8-diazaspiro[4,5]decan-8-yl)quinolin-3-yl](cyclopropyl)methanone], the IC50 on MELK came to 0.004 µM; with BT-549 cells (Homo sapiens, BT-549, 72 h) it was 0.79 µM; in the assay on T47D cells (Homo sapiens, T47D, 72 h) it was 0.43 µM; in the assay with A549 cells (Homo sapiens, A549, 72 h) it was 0.68 µM; in the assay with HT-1197 cells (Homo sapiens, HT1197, 72 h) it was 2.4 µM.
Regarding `N[C@H]1CC[C@H](Nc2c(C(=O)C3CC3)cnc3ccc(-c4cc(F)c(O)c(F)c4)cc23)CC1` [Example 156, {4-[trans-4-Aminocyclohexylamino]-6-(3,5-difluoro-4-hydroxyphenyl)quinolin-3-yl}(cyclopropyl)methanone], the IC50 came out at 0.023 µM on MELK; 0.16 µM with BT-549 cells (Homo sapiens, BT-549, 72 h); 0.095 µM in the assay with T47D cells (Homo sapiens, T47D, 72 h); 0.88 µM in the assay with A549 cells (Homo sapiens, A549, 72 h); 3.1 µM with HT-1197 cells (Homo sapiens, HT1197, 72 h).
Consider `N[C@H]1CC[C@H](Nc2c(C(=O)C3CC3)cnc3ccc(-c4cc(Cl)c(O)c(Cl)c4)cc23)CC1` [Example 157(a), {4-[trans-4-Aminocyclohexylamino]-6-(3,5-dichloro-4-hydroxyphenyl)quinolin-3-yl}(cyclopropyl)methanone], for which the concentration for half-maximal inhibition (IC50) at MELK amounted to 0.0076 µM; in the assay on BT-549 cells (Homo sapiens, BT-549, 72 h), 0.33 µM; with T47D cells (Homo sapiens, T47D, 72 h), 0.15 µM; in the assay with A549 cells (Homo sapiens, A549, 72 h) it was 0.57 µM; in the assay with HT-1197 cells (Homo sapiens, HT1197, 72 h) it was 3.7 µM.
Regarding `N[C@H]1CC[C@H](Nc2c(C(=O)C3CC3)cnc3ccc(-c4cc(Cl)c(O)c(Cl)c4)cc23)CC1` [Example 157(b), {4-[trans-4-Aminocyclohexylamino]-6-(3,5-dichloro-4-hydroxyphenyl)quinolin-3-yl}(cyclopropyl)methanone dihydrochloride], the IC50 at MELK (dihydrochloride) was 0.003 µM; with BT-549 cells (dihydrochloride), 0.31 µM; with T47D cells (dihydrochloride), 0.096 µM; with A549 cells (dihydrochloride) it was 0.3 µM; in the assay on HT-1197 cells (dihydrochloride), 4.7 µM.
For `N[C@H]1CC[C@H](Nc2c(C(=O)C3CC3)cnc3ccc(-c4cc(Cl)c(O)cc4Cl)cc23)CC1` [Example 160, {4-[trans-4-Aminocyclohexylamino]-6-(2,5-dichloro-4-hydroxyphenyl)quinolin-3-yl}(cyclopropyl)methanone], the IC50 at MELK was 0.072 µM; with BT-549 cells (Homo sapiens, BT-549, 72 h), 0.39 µM; in the assay on T47D cells (Homo sapiens, T47D, 72 h) it was 0.28 µM; in the assay on A549 cells (Homo sapiens, A549, 72 h), 0.68 µM; in the assay with HT-1197 cells (Homo sapiens, HT1197, 72 h), 1.2 µM.
On the same counts, the results for `COc1cc(-c2ccc3ncc(C(=O)C4CC4)c(N[C@H]4CC[C@@H](N)CC4)c3c2)ccc1O` [Example 165, {4-(cis-4-Aminocyclohexylamino)-6-(4-hydroxy-3-methoxyphenyl)quinolin-3-yl}(cyclopropyl)methanone] are 0.0019 µM, 0.93 µM, 0.57 µM, 0.45 µM and 2.1 µM.
As to `COc1cc(-c2ccc3ncc(C(=O)C4CC4)c(NC4CCN(C)CC4)c3c2)ccc1O` [Example 177, Cyclopropyl[6-(4-hydroxy-3-methoxyphenyl)-4-(1-methylpiperidin-4-ylamino)quinolin-3-yl]methanone], the IC50 at MELK was 0.026 µM; in the assay with BT-549 cells (Homo sapiens, BT-549, 72 h), 2.6 µM; with T47D cells (Homo sapiens, T47D, 72 h), 0.88 µM; in the assay with A549 cells (Homo sapiens, A549, 72 h), 0.83 µM; with HT-1197 cells (Homo sapiens, HT1197, 72 h), 2.3 µM.
For the compound `N[C@H]1CC[C@H](Nc2c(C(=O)C3CC3)cnc3ccc(-c4cc(F)c(O)c(Cl)c4)cc23)CC1` [Example 179, {4-[trans-4-Aminocyclohexylamino]-6-(3-chloro-5-fluoro-4-hydroxyphenyl)quinolin-3-yl}(cyclopropyl)methanone], the IC50 on MELK is 0.0065 µM; with BT-549 cells (Homo sapiens, BT-549, 72 h), 0.22 µM; with T47D cells (Homo sapiens, T47D, 72 h), 0.11 µM; in the assay on A549 cells (Homo sapiens, A549, 72 h), 0.85 µM; with HT-1197 cells (Homo sapiens, HT1197, 72 h), 5.2 µM.
With `CCN(CC)C1CCC(Nc2c(C(=O)C3CC3)cnc3ccc(-c4cc(Cl)c(O)c(OC)c4)cc23)CC1` (stereo not shown) [Example 185(b), {6-(3-Chloro-4-hydroxy-5-methoxyphenyl)-4-[4-(diethylamino)cyclohexylamino]quinolin-3-yl}(cyclopropyl)methanone dihydrochloride], the half-inhibitory concentration (IC50) in the assay on BT-549 cells (dihydrochloride) turned out to be 1 µM; with T47D cells (dihydrochloride) it was 0.49 µM; in the assay with A549 cells (dihydrochloride) it was 0.18 µM; with HT-1197 cells (dihydrochloride), 4.7 µM.

(Values after patent US9120749B2, “Quinoline derivatives and MELK inhibitors containing the same” (ONCOTHERAPY SCIENCE, INC., priority 2010, dated 2015).)
